Data published in the supplement of paper PMC10307832.

Columns and labels:
Test in all cases: relative viability (nuclei count vs DMSO), 5 days (fraction); higher = more cells survive
Zebularine + Vorinostat = compound: O=c1ncccn1[C@@H]1O[C@H](CO)[C@@H](O)[C@H]1O [Zebularine] + O=C(CCCCCCC(=O)Nc1ccccc1)NO [Vorinostat] (partner 1 µM)
In short: (§1)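 Relative viability is defined as nuclei in treated wells over nuclei in vehicle wells. Duplicate plates were run and medians reported. Lung cancer cell lines in 1536-well plates were dosed by pin tool one day after seeding, with one drug or with a fixed anchor-drug dose plus five library-drug doses (not always all listed) in √10 steps, and nuclei were counted after 5 days.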

Zebularine + Alpelisib = compound: O=c1ncccn1[C@@H]1O[C@H](CO)[C@@H](O)[C@H]1O [Zebularine] + Cc1nc(NC(=O)N2CCC[C@H]2C(N)=O)sc1-c1ccnc(C(C)(C)C(F)(F)F)c1 [Alpelisib] (partner 2 µM)
In short: as §1

Zebularine + OSI-027 = compound: O=c1ncccn1[C@@H]1O[C@H](CO)[C@@H](O)[C@H]1O [Zebularine] + COc1cccc2cc(-c3nc([C@H]4CC[C@H](C(=O)O)CC4)n4ncnc(N)c34)[nH]c12 [OSI-027] (partner 0.5 µM)
In short: as §1

Zebularine + Linsitinib = compound: O=c1ncccn1[C@@H]1O[C@H](CO)[C@@H](O)[C@H]1O [Zebularine] + C[C@]1(O)C[C@@H](c2nc(-c3ccc4ccc(-c5ccccc5)nc4c3)c3c(N)nccn32)C1 [Linsitinib] (partner 1 µM)
In short: as §1

Cell Line | relative viability (Zebularine + Vorinostat; first compound 1 µM) | relative viability (Zebularine + Vorinostat; first compound 3.162 µM) | relative viability (Zebularine + Vorinostat; first compound 10 µM) | relative viability (Zebularine + Vorinostat; first compound 31.62 µM) | relative viability (Zebularine + Vorinostat; first compound 100 µM) | relative viability (Zebularine + Alpelisib; first compound 1 µM) | relative viability (Zebularine + Alpelisib; first compound 3.162 µM) | relative viability (Zebularine + Alpelisib; first compound 10 µM) | relative viability (Zebularine + Alpelisib; first compound 31.62 µM) | relative viability (Zebularine + Alpelisib; first compound 100 µM) | relative viability (Zebularine + OSI-027; first compound 1 µM) | relative viability (Zebularine + OSI-027; first compound 3.162 µM) | relative viability (Zebularine + OSI-027; first compound 10 µM) | relative viability (Zebularine + OSI-027; first compound 31.62 µM) | relative viability (Zebularine + OSI-027; first compound 100 µM) | relative viability (Zebularine + Linsitinib; first compound 1 µM) | relative viability (Zebularine + Linsitinib; first compound 3.162 µM) | relative viability (Zebularine + Linsitinib; first compound 10 µM) | relative viability (Zebularine + Linsitinib; first compound 31.62 µM) | relative viability (Zebularine + Linsitinib; first compound 100 µM)
NCI-H3122 | 1.14 | 0.937 | 0.792 | 1.09 | 0.996 | 0.991 | 0.822 | 0.573 | 0.871 | 0.703 | 1.24 | 1.03 | 0.603 | 1.03 | 0.755 | 1.13 | 1.09 | 0.848 | 1.06 | 1.04
HCC-827 | 1.04 | 0.811 | 0.77 | 0.478 | 0.361 | 1.02 | 1.11 | 0.84 | 0.673 | 0.305 | 1.06 | 0.779 | 0.675 | 0.609 | 0.366 | 0.974 | 1.01 | 0.941 | 0.757 | 0.361
SK-LU-1 | 0.891 | 0.725 | 0.557 | 0.555 | 0.487 | 1.2 | 0.875 | 0.66 | 0.745 | 0.468 | 0.369 | 0.359 | 0.31 | 0.291 | 0.302 | 1.21 | 0.936 | 0.588 | 0.611 | 0.564
NCI-H1975 | 0.731 | 0.728 | 0.465 | 0.556 | 0.321 | 0.705 | 0.555 | 0.4 | 0.354 | 0.233 | 0.845 | 0.695 | 0.383 | 0.335 | 0.23 | 1.01 | 0.861 | 0.582 | 0.456 | 0.271
NCI-H1651 | 0.637 | 0.537 | 0.501 | 0.523 | 0.46 | 0.875 | 1.05 |  | 0.769 | 0.527 | 0.735 | 0.69 | 0.549 | 0.716 | 0.447 | 1 | 0.893 |  | 0.904 | 0.465
NCI-H441 | 1.03 | 0.908 | 0.404 | 0.317 | 0.362 | 0.779 | 0.73 | 0.496 | 0.271 | 0.264 | 0.817 | 0.595 | 0.401 | 0.25 | 0.234 | 0.581 | 0.548 | 0.291 | 0.249 | 0.234
LCLC-103H | 0.812 | 0.697 | 0.706 | 0.77 | 0.75 | 1.08 | 0.945 | 0.95 | 0.904 | 0.761 | 0.474 | 0.434 | 0.321 | 0.414 | 0.462 | 1.17 | 1.24 | 0.87 | 1 | 0.945
LCLC-97TM1 | 0.529 | 0.253 | 0.33 | 0.157 | 0.152 | 0.23 | 0.224 | 0.193 | 0.12 | 0.112 | 0.572 | 0.533 | 0.258 | 0.198 | 0.213 | 0.192 | 0.168 | 0.144 | 0.128 | 0.11
NCI-H727 | 1.18 | 1.14 | 0.971 | 1.26 | 1.08 |  | 0.531 | 0.564 | 0.665 | 0.485 | 0.52 | 0.54 | 0.522 | 0.674 | 0.446 | 0.3 | 0.3 | 0.286 | 0.365 | 0.203
NCI-H1355 | 0.692 | 0.585 | 0.479 | 0.544 | 0.372 | 0.856 | 0.798 | 0.728 | 0.635 | 0.385 | 0.435 | 0.388 | 0.357 | 0.494 | 0.381 | 1 | 0.769 | 0.752 | 0.513 | 0.283
HOP-62 | 0.717 | 0.474 | 0.365 | 0.203 | 0.22 | 0.932 | 0.64 | 0.603 | 0.22 | 0.127 | 0.945 | 0.745 | 0.493 | 0.465 | 0.319 | 1.05 | 0.848 | 0.557 | 0.188 | 0.118
NCI-H2085 | 0.804 | 0.835 | 0.662 | 0.755 | 0.465 | 1.04 | 0.977 | 0.802 | 0.96 | 0.535 | 0.737 | 0.537 | 0.602 | 0.769 | 0.516 | 1.18 | 0.878 | 0.76 | 0.887 | 0.428
